Assay: Particle size distribution of microbubble suspensions in the Coulter Multisizer, method b (flotation purification from gas-free particles)
Assay type: physicochemical
Method: Dye-containing suspensions of gas-containing ultrasound contrast agents of the invention were analyzed for the particle size distributions in the Coulter® Multisizer (Beckman Coulter Inc. Fullerton, Calif., USA). […] Two methods may be used to determine the distribution of just the gas-containing particles in the compositions of the invention. Method b) The frequency distribution of the diameter of gas-containing particles is obtained after purification of the initial particle suspension from gas-free particles. Purification is achieved by flotation of the gas-containing particles in a centrifuge and substitution of the infranatant containing the gas-free particles with fresh saline. The procedure is executed once or twice depending on the initial contamination by gas-free particles. This method is preferable in those cases wherein the amount of insoluble material in the gas-containing particles exceeds 10% of the total insoluble material, in the initial suspension. The results may be represented either in the form of plots of the frequency distributions (e.g. example 11 and FIG. 1) or as parameters elaborated therefrom, i. e. total microbubble concentration, total microbubble surface, microbubble volume concentration and mean diameter in number (e.g. example 12). […]

For `Cc1cc(-c2ccc(/N=N/c3ccc4c(S(=O)(=O)O)cc(S(=O)(=O)O)c(N)c4c3O)c(C)c2)ccc1/N=N/c1ccc2c(S(=O)(=O)O)cc(S(=O)(=O)O)c(N)c2c1O` [Evans blue], the “Interference with the regular formation of microbubbles” value (SonoVue reconstituted with saline containing Evans blue vs regular SonoVue, echographic perspective) was “negligible” and the “Stability of the microbubbles” value (time 0 vs after 3 h, presence of Evans blue) was “did not jeopardize the stability of the microbubbles”.
